This is an account of results in patent US20250302816A1, “DISRUPTION OF EPITHELIAL BARRIERS FOR MOLECULAR DELIVERY ENHANCEMENT OR EXTRACTION OF EXTRACELLULAR FLUIDS” (The University of Nottingham, priority 2022, published 2025).

In the assay the test system is MMP. Nature of the assay: Fluorogenic MMP activity assay. The class given is cell-based, human. How it is done:
FIG. 5: High-throughput MMP assay (MMP Activity Assay Kit (Fluorometric-Red), Abcam #ab112147) showing the normalised accumulation slope of FRET-based signal (Ex540: Em590 nm) read at 5 minute intervals for one hour in adherent Calu-3 cells cultured in glass-bottomed 96-well plates using a SpectraMax i3x/Biomek FXPP high-throughput platform. Each experiment was conducted in triplicate (error bars). Signal accumulation over time in each well was linearly fitted and the gradient of each fit was scaled against the gradient of the relevant positive control wells, to which active MMP was added directly (mixed isoforms, […]), to obtain the normalised accumulation slope.
To investigate the involvement of MMP in the disruption of tight junctions observed in the presence of 200 μM 3OC12-HSL and C7 PQS, a fluorogenic MMP activity assay was performed, using the Amplite™ Universal Fluorimetric MMP Activity Assay Kit. This kit is designed to check the general activity of a MMP enzyme.
Following treatment with 3OC12-HSL and C7 PQS respectively, the conditioned media were collected every hour from apical chamber and MMP activity was determined by using Amplite™ Universal Fluorimetric MMP Activity Assay Kit Green Fluorescence according to the manufacturer's instructions.
A fluorogenic MMP activity assay was carried out in the same manner on further agents.

Consider `CCCCCCCCCC(=O)CC(=O)N[C@H]1CCOC1=O` [Agent 3OC12-HSL, N-(3-oxododecanoyl) homoserine lactone], for which the “MMP activation in apical samples taken at one-hour intervals” value (200 μM, p<0.01, no fluorescence in control samples) is “significant MMP activation”. Further, where the note is “samples taken hourly from apical chamber”, the “period over which MMP activation increased before starting to reduce” value amounted to 4 h.
